Measurements as given in patent US20170340584A1 (priority 2014, published 2017).

Assays:
[1] = Body weight and body weight gain of high-fat diet mice; format: in vivo, mice (C57BL/6); conditions: sample in drinking water, metformin 250 mg/kg
Method: (§1) Using 8-week-old male mice (C57BL/6) (purchased from CoreTech), anti-diabetic candidate materials were evaluated using a GTT (Glucose Tolerance Test) that is a typical method for diagnosis of diabetes.
(§2) Mice were housed at a temperature of 22±2° C. and a relative humidity of 55-60% with 12-hr light/12-hr dark cycles. Five animals were allotted to each group, and mice from the same mother were grouped into one group, because male mice tend to fight together.
(§3) As feed, high-fat diet (60% of calories from fat; Research Diet Inc., New Brunswick, N.J.) and water were fed ad libitum for 10 weeks. Herein, the water fed contained the samples prepared in Examples 1-2 (3), 2-1, 2-4-1, 2-4-2 and 2-5. As a positive control, metformin (M-072, Sigma) (250 mg/kg) was used, and as a control, the samples prepared in Comparative Examples 1-1, 2-3-2, 2-5-1, 2-5-2 and 2-6 were used.
(§4) For reference, each of the samples prepared in Examples 2-4-1, 2-4-2 and 2-5 was set to the amount to be taken by an adult (60 kg) for 3 days, and the amount was converted into a mouse dose (12-fold/kg, see the US NIH guidance), thereby preparing animal feed. Namely, the amount to be taken by an adult (60 kg) for 3 days is 180-day dose/kg, which corresponds to 15-day dose/kg for mice. Thus, the amount corresponds to 750-day dose/mouse (20 g), because the average weight of mice is about 20 g. Thus, one mouse was allowed to take 1/750 of the prepared sample each day.
(§5) In addition, each of the samples prepared in Examples 1-2 (3) and 2-1 was set to the amount to be taken by an adult (60 kg) for 2 days, and the amount was converted into a mouse dose (12-fold/kg, see the US NIH guidance), thereby preparing animal feed. Namely, the amount to be taken by an adult (60 kg) for 2 days is 120-day dose/kg, which corresponds to 10-day dose/kg for mice. Thus, the amount corresponds to 500-day dose/mouse (20 g), because the average weight of mice is about 20 g. Thus, one mouse was allowed to take 1/500 of the prepared sample each day.
The diet intake and the body weight gain were measured weekly for 8 weeks. The body weight and the diet intake were measured immediately before first drug administration, and then measured at one-week intervals.
(§6) Meanwhile, experimental analysis results were expressed as mean±S.E.M., and the significance between test groups was statistically processed using Student T-TEST, and then the significance was verified at *P<0.05.

[2] = Glucose tolerance test (GTT) in high-fat diet mice; format: in vivo, mice (C57BL/6); conditions: for Glucose level (mg/dl), Mean: GTT, high-fat diet mice
Method: as §1, §2, §3, §4, §5
At 8 weeks of high-fat diet feeding, a glucose tolerance test (GTT) was performed. For 8 hours for the test, mice were fasted. Then, blood was sampled from the tail vein, and initial blood glucose levels were measured with a blood glucose meter (AUTO-CHEK, Diatech Korea). Then, glucose was administered intraperitoneally to the mice at a concentration of 1 g/kg, and after 30 min, 60 min, 90 min and 120 min, blood was sampled from the mice, followed by measurement of blood glucose levels (each group consisting of five animals).
as §6

[3] = Blood biochemistry (triglyceride, AST, ALT) in high-fat diet mice; format: in vivo, mice (C57BL/6)
Method: as §1, §3
In blood biochemistry, insulin (AKRIN-011T, Shibayagi, Japan), glucose (AM202, Asan Pharmaceutical Co., Ltd., Korea), triglyceride (AM157, Asan Pharmaceutical Co., Ltd.), total cholesterol (AM202, Asan Pharmaceutical Co., Ltd.), AST and ALT (Asan Pharmaceutical Co., Ltd.) were analyzed using enzymatic assay kits.
(§7) At 10 weeks of high-fat diet feeding, the mice were sacrificed by cervical dislocation to obtain serum. For histological examination, the liver, white adipose tissue (WAT), brown adipose tissue (BAT) and kidney were fixed with formalin (50-00-0, Junsei, Japan), and the remaining organs were stored at −70° C. The blood sampled from the heart was coagulated to obtain serum which was then stored at −70° C.
as §6

[4] = system: liver, white adipose tissue (WAT), brown adipose tissue (BAT) and kidney; assay: Histological examination of high-fat diet mice; format: in vivo, mice (C57BL/6); conditions: 10 weeks of high-fat diet feeding
Method: as §7
For histological examination, the major organs and adipose were fixed in 4% neutral buffered formalin and embedded in paraffin blocks, and the paraffin blocks were sectioned at 5 μm and stained with hymatoxylin (MHS-16, Sigma-Aldrich, USA) and eosin (HT110116, Sigma-Aldrich). The prepared tissue samples were mounted in glycerin gel mounting media (SP15-100, Fisher Scientific, USA), covered with cover glass, and observed with a microscope (IX71, OLYMPUS, USA). The tissue was imaged with the camera equipped in the microscope.

[5] = Scanning electron microscope (SEM) analysis, particle size; format: physicochemical
Excerpt: For reference, an analysis instrument and analysis conditions are as follows. (1) Analysis instrument: HITACHI (S-2700), Japan (2) Electron gun: Tungsten filament type (3) Resolution: 4.0 nm (4) Accelerating voltage: 15.0 kV.

[6] = Thermogravimetric analysis (TGA); format: physicochemical; conditions: first-order differentiation of TGA; N2, 20° C./min
Method: For reference, an analysis instrument and analysis conditions are as follows. (1) Analysis instrument: TGA 7 (Perkin-Elmer) (2) Atmosphere: N2 gas (3) Heating rate: 20° C./min (4) Range: 50 to 600° C.

Average particle size [5]: 190.84 μm | Median particle size [5]: 122.47 μm | Final decomposition temperature [6]: 396 °C | First decomposition temperature [6]: 359 °C
SMILES: NCCS(=O)(=O)O [DT15, modified taurine]
Body weight gain, Mean ([1]; 1 week): 2.65 g | Body weight, Mean ([1]; 1 week): 20.30 g | Body weight gain, Mean ([1]; 2 weeks): 4.40 g | Body weight, Mean ([1]; 2 weeks): 22.05 g | Body weight gain, Mean ([1]; 3 weeks): 6.28 g | Body weight, Mean ([1]; 3 weeks): 23.93 g | Body weight gain, Mean ([1]; 4 weeks): 7.53 g | Body weight, Mean ([1]; 4 weeks): 25.18 g | Body weight gain, Mean ([1]; 5 weeks): 8.38 g | Body weight, Mean ([1]; 5 weeks): 26.03 g | Body weight gain, Mean ([1]; 6 weeks): 10.25 g | Body weight, Mean ([1]; 6 weeks): 27.90 g | Body weight gain, Mean ([1]; 7 weeks): 11.10 g | Body weight, Mean ([1]; 7 weeks): 28.75 g | Body weight, Mean ([1]; 8 weeks): 29.23 g | Body weight, Mean ([1]; before administration): 17.65 g | Glucose level (mg/dl), Mean ([2]; 0 min): 121.25 mg/dL | Glucose level (mg/dl), Mean ([2]; 30 min): 335.25 mg/dL | Glucose level (mg/dl), Mean ([2]; 60 min): 295.25 mg/dL | Glucose level (mg/dl), Mean ([2]; 90 min): 193.75 mg/dL | Glucose level (mg/dl), Mean ([2]; 120 min): 126.25 mg/dL | Fasting glucose level ([2]; at 8 weeks of high-fat diet feeding, 8 hours fasted): lower than that of the mice administered with high-fat diet (HFD), and were similar to the blood glucose levels of normal mice | Glucose control ability in GTT ([2]; at 8 weeks of high-fat diet feeding, glucose 1 g/kg intraperitoneally, 30-120 min): significantly higher than that of the group administered with HFD alone | ALT level [3]: lower than those of DT19 | AST level [3]: lower than those of DT19 | Triglyceride level [3]: significantly lower than that of DT19 (taurine) | ALT level (IU/L), Mean ([3]; blood): 14.02 IU/L | AST level (IU/L), Mean ([3]; blood): 98.96 IU/L | Triglyceride level (mg/dl), Mean ([3]; blood): 53.62 mg/dL | Accumulation of adipose in brown adipose tissue [4]: decreased | Development of fatty liver [4]: decreased | Nephrotoxicity ([4]; kidney tissue): did not appear
